Test results from US20230416227A1, “PLASMA KALLIKREIN INHIBITORS” (Merck Sharp & Dohme LLC, priority 2020, published 2023).

Experiments:
Human plasma kallikrein = molecular target: T1, Human plasma kallikrein (Homo sapiens, UniProt P03952); assay: Plasma Kallikrein Assay; type: biochemical; details: purified Human plasma kallikrein 0.5 nM, substrate Acetyl-K-P-R-AFC, pH 7.4
T1 construct: yields a heavy chain (371 amino acids) and a light chain (248 amino acids); purchased Enzyme Research Laboratories
T1 sequence (P03952 391-638 limits assumed): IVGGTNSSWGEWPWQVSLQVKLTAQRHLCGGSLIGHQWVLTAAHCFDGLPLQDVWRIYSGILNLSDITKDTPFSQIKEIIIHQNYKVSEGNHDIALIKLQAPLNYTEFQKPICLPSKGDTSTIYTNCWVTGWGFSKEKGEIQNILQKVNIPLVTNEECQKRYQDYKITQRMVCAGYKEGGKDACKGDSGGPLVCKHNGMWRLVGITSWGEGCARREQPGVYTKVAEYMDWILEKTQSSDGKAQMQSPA
T1 sequence (P03952 20-390 partner limits assumed): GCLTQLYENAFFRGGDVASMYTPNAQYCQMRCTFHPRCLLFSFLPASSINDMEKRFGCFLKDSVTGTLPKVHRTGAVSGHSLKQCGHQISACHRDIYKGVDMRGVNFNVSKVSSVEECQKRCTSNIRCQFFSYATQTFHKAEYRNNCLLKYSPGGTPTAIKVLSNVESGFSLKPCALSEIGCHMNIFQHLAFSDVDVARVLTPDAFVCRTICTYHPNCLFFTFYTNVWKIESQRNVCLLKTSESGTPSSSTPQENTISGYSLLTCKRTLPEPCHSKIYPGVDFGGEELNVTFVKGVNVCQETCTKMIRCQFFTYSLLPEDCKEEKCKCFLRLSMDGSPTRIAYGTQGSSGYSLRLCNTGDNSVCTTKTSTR

human factor XIa = human factor XIa (Homo sapiens, UniProt P03951); assay: Factor XIa Assay; type: biochemical; details: human factor XIa 0.04 nM, substrate GPR-AFC, 30 min pre-incubation at 25° C., pH 7.4; read-out: FXIa IC50
human factor XIa, sequence (P03951 388-625 limits assumed): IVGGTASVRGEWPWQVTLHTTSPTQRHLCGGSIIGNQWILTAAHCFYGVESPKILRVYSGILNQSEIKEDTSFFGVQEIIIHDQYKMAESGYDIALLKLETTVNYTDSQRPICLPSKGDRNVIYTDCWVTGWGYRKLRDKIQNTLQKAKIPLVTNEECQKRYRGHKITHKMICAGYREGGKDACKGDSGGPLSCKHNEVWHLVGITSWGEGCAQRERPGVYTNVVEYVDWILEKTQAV
human factor XIa, sequence (P03951 19-387 partner limits assumed): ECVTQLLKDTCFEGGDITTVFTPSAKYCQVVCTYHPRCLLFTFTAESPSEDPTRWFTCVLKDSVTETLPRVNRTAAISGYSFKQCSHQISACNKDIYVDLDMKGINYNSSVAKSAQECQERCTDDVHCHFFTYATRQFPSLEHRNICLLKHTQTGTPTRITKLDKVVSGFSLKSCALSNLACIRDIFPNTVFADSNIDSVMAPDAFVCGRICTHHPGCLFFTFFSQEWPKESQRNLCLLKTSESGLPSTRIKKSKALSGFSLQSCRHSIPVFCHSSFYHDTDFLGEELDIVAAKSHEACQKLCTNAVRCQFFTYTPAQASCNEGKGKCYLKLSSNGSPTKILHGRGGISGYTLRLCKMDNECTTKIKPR

Structure (SMILES)	IC50 (Human plasma kallikrein)	IC50 (human factor XIa)
O=C(Nc1cnn(Cc2cnc(N3CCC3)nc2C2CC2)c1)c1cncc(-c2c(C(F)F)ccc(Cl)c2F)n1 [Example 22, N-(1-((2-(Azetidin-1-yl)-4-cyclopropylpyrimidin-5-yl)methyl)-1H-pyrazol-4-yl)-6-(3-chloro-6-(difluoromethyl)-2-fluorophenyl)pyrazine-2-carboxamide]	22.3 nM	4370 nM
Cc1cc(N2CCC2)ncc1[C@H](C)n1cc(NC(=O)c2cncc(-c3c(C(F)F)ccc(Cl)c3F)n2)cn1 (single isomer, unassigned) [Example 66]	3.9 nM	639 nM
C[C@H](F)CN(C)CC1CCCN1c1ncc(Cn2cc(NC(=O)c3cncc(-c4c(C(F)F)ccc(Cl)c4F)n3)cn2)cn1 (stereo partly drawn) [Example 147, 6-(3-Chloro-6-(difluoromethyl)-2-fluorophenyl)-N-(1-((2-(2-((((S)-2-fluoropropyl)(methyl)amino)methyl)pyrrolidin-1-yl)pyrimidin-5-yl)methyl)-1H-pyrazol-4-yl)pyrazine-2-carboxamide]	0.6 nM	5500 nM
CC(c1cnc(N2CC[C@H](O)C2)nc1)n1cc(NC(=O)c2cncc(-c3c(C(F)F)ccc(Cl)c3F)n2)cn1 (mixture of isomers) [Example 96, 6-(3-Chloro-6-(difluoromethyl)-2-fluorophenyl)-N-(1-((R and S)-1-(2-((S)-3-hydroxypyrrolidin-1-yl)pyrimidin-5-yl)ethyl)-1H-pyrazol-4-yl)pyrazine-2-carboxamide]	25.9 nM	3710 nM
O=C(Nc1cnn(Cc2cnc(N3CC4CC4C3CO)nc2)c1)c1cncc(-c2c(C(F)F)ccc(Cl)c2F)n1 (single isomer, unassigned) [Example 77, 6-(3-Chloro-6-(difluoromethyl)-2-fluorophenyl)-N-(1-((2-((1R,2S,5S or 1S,2R,5R)-2-(hydroxymethyl)-3-azabicyclo[3.1.0]hexan-3-yl)pyrimidin-5-yl)methyl)-1H-pyrazol-4-yl)pyrazine-2-carboxamide]	5.6 nM	2950 nM
O=C(Nc1cnn(C(CO)c2cnc(N3CC4CC4C3)nc2)c1)c1cncc(-c2c(C(F)F)ccc(Cl)c2F)n1 (single isomer, unassigned) [Example 45, N-(1-((R or S)-1-(2-(3-Azabicyclo[3.1.0]hexan-3-yl)pyrimidin-5-yl)-2-hydroxyethyl)-1H-pyrazol-4-yl)-6-(3-chloro-6-(difluoromethyl)-2-fluorophenyl)pyrazine-2-carboxamide]	23.2 nM	992 nM
CC(c1cnc(N2Cc3cccnc3C2)nc1)n1cc(NC(=O)c2cncc(-c3c(C(F)F)ccc(Cl)c3F)n2)cn1 (centres unmarked) [Example 83, 6-(3-Chloro-6-(difluoromethyl)-2-fluorophenyl)-N-(1-(1-(2-(5,7-dihydro-6H-pyrrolo[3,4-b]pyridin-6-yl)pyrimidin-5-yl)ethyl)-1H-pyrazol-4-yl)pyrazine-2-carboxamide]	9.4 nM	8080 nM
CC(c1cnc(N2C[C@H]3C[C@H]3C2C(=O)N(C)C)nc1)n1cc(NC(=O)c2cncc(-c3c(C(F)F)ccc(Cl)c3F)n2)cn1 (single isomer, unassigned) [Example 200, (1R,2S,5S or 1S,2R,5R)-3-(5-((R or S)-1-(4-(6-(3-Chloro-6-(difluoromethyl)-2-fluorophenyl)pyrazine-2-carboxamido)-1H-pyrazol-1-yl)ethyl)pyrimidin-2-yl)-N,N-dimethyl-3-azabicyclo[3.1.0]hexane-2-carboxamide]	2.4 nM	1120 nM
NCC1CCCN1c1ncc(Cn2cc(NC(=O)c3cncc(-c4c(C(F)F)ccc(Cl)c4F)n3)cn2)cn1 (centres unmarked) [Example 81, N-(1-((2-(2-(Aminomethyl)pyrrolidin-1-yl)pyrimidin-5-yl)methyl)-1H-pyrazol-4-yl)-6-(3-chloro-6-(difluoromethyl)-2-fluorophenyl)pyrazine-2-carboxamide]	7.4 nM	3940 nM
O=C(Nc1cnn(C(CO)c2cnc(N3CC4CC4C3)nc2)c1)c1cncc(-c2c(C(F)F)ccc(Cl)c2F)n1 (single isomer, unassigned) [Example 44, N-(1-((S or R)-1-(2-(3-Azabicyclo[3.1.0]hexan-3-yl)pyrimidin-5-yl)-2-hydroxyethyl)-1H-pyrazol-4-yl)-6-(3-chloro-6-(difluoromethyl)-2-fluorophenyl)pyrazine-2-carboxamide]	10.3 nM	1460 nM
Cc1nc(N2CCC2)cnc1C(C)n1cc(NC(=O)c2cncc(-c3c(C(F)F)ccc(Cl)c3F)n2)cn1 (single isomer, unassigned) [Example 41, (S or R)-N-(1-(1-(5-(azetidin-1-yl)-3-methylpyrazin-2-yl)ethyl)-1H-pyrazol-4-yl)-6-(3-chloro-6-(difluoromethyl)-2-fluorophenyl)pyrazine-2-carboxamide]	2.1 nM	4210 nM
CC(C)(O)CNC[C@@H]1[C@@H]2C[C@@H]2CN1c1ncc(Cn2cc(NC(=O)c3cncc(-c4c(C(F)F)ccc(Cl)c4F)n3)cn2)cn1 [Example 139, 6-(3-Chloro-6-(difluoromethyl)-2-fluorophenyl)-N-(1-((2-((1R,2S,5S)-2-(((2-hydroxy-2-methylpropyl)amino)methyl)-3-azabicyclo[3.1.0]hexan-3-yl)pyrimidin-5-yl)methyl)-1H-pyrazol-4-yl)pyrazine-2-carboxamide]	0.3 nM	502 nM
CC(c1cnc(N2CC[C@H]2CN2CC[C@H](O)C2)nc1)n1cc(NC(=O)c2cncc(-c3c(C(F)F)ccc(Cl)c3F)n2)cn1 (stereo partly drawn) [Example 162, 6-(3-Chloro-6-(difluoromethyl)-2-fluorophenyl)-N-(1-(1-(2-((S)-2-(((S)-3-hydroxypyrrolidin-1-yl)methyl)azetidin-1-yl)pyrimidin-5-yl)ethyl)-1H-pyrazol-4-yl)pyrazine-2-carboxamide]	1 nM	5190 nM
C[C@@H](c1cnc(N2C[C@@H]3C[C@@H]3[C@@H]2C#N)nc1)n1cc(NC(=O)c2cncc(-c3c(C(F)F)ccc(Cl)c3F)n2)cn1 [Example 199, 6-(3-chloro-6-(difluoromethyl)-2-fluorophenyl)-N-(1-((S)-1-(2-((1S,2R,5R)-2-cyano-3-azabicyclo[3.1.0]hexan-3-yl)pyrimidin-5-yl)ethyl)-1H-pyrazol-4-yl)pyrazine-2-carboxamide]	1.5 nM	4790 nM
CC(c1cnc(N2C[C@H]3C[C@H]3[C@H]2C(N)=O)nc1)n1cc(NC(=O)c2cncc(-c3c(C(F)F)ccc(Cl)c3F)n2)cn1 (relative stereo) [Example 195, (cis)-3-(5-(1-(4-(6-(3-Chloro-6-(difluoromethyl)-2-fluorophenyl)pyrazine-2-carboxamido)-1H-pyrazol-1-yl)ethyl)pyrimidin-2-yl)-3-azabicyclo[3.1.0]hexane-2-carboxamide]	11 nM	8800 nM
CC(c1cnc(N2CC[C@H]2CN2CCC(O)CC2)nc1)n1cc(NC(=O)c2cncc(-c3c(C(F)F)ccc(Cl)c3F)n2)cn1 (stereo partly drawn) [Example 179, 6-(3-Chloro-6-(difluoromethyl)-2-fluorophenyl)-N-(1-(1-(2-((S)-2-((4-hydroxypiperidin-1-yl)methyl)azetidin-1-yl)pyrimidin-5-yl)ethyl)-1H-pyrazol-4-yl)pyrazine-2-carboxamide]	0.7 nM	9430 nM
